These results are taken from PMC11644518 (Plants, 2024).

Test [1] concerns the target T1, SARS-CoV PLpro (Severe acute respiratory syndrome coronavirus, UniProt P0C6X7). Put plainly: biochemical. Conditions: for IC50: IC50 Value, SARS-CoV PLpro inhibitory activity.
Test [2] concerns the target T1, SARS-CoV PLpro. As to the kind of experiment: biochemical. The conditions noted are these: for Ki: Ki (inhibition constant).

“And” between values parts separate entries of the source, which are not always exact repeats. Equal values may be shown once.

Broadly, the IC50 is the concentration that gives 50% inhibition. Higher therefore signals lower potency. Broadly, the Ki is a dissociation constant, usually derived from enzyme kinetics or from competition with a known ligand. Turning to `COc1c(CC=C(C)C)c(O)cc2c1[C@@H]1Oc3c(ccc(O)c3CC=C(C)C)[C@@H]1CO2` [Compound 3, 1-methoxyerythrabyssin II], at SARS-CoV PLpro [1], the “fold higher inhibition than demethoxylated analog 1” value turned out to be 2 fold and it took 11.2 µM to reach half-maximal inhibition (IC50). Further, on SARS-CoV PLpro [2], the “Inhibition Mode” value is listed as “Noncompetitive (8.6 ± 1.1)” and the Ki was determined as 8.6 µM.
In turn, `COc1cc(O)c(C/C=C(\C)CCC=C(C)C)c2c1[C@@H]1Oc3cc(O)ccc3[C@@H]1CO2` [Compound 6, bicolosin C] yielded an IC50 on SARS-CoV PLpro [1] of 9.3 ± 3.1 µM. Further, at SARS-CoV PLpro [2], the “Effect on Michaelis-Menten constant (Km)” value is “no effect”, the “Effect on Vmax” value is given as “reduced”, the “Inhibition Mode” value is given as “Noncompetitive (9.0 ± 1.4)” and the Reversibility of inhibition entry is on record as “reversible inhibitor”. For the same compound, the inhibition constant Ki on SARS-CoV PLpro [2] was 9.06 µM and 9 µM.
With `CC(C)=CCC[C@@]1(C)C=Cc2c(ccc(C(=O)/C=C/c3ccc(O)cc3)c2O)O1` (racemic) [Compound 8, (±)-lespeol], on SARS-CoV PLpro [1], the “fold lower potency than 7” value was 8 fold and the IC50 came to 50.1 ± 4.2 µM. Also, on SARS-CoV PLpro [2], the “Inhibition Mode” value is on record as “Noncompetitive (54.0 ± 4.5)” and the affinity corresponds to a Ki of 54 µM.
Regarding `COc1c(O)ccc(C2COc3cc(O)cc(O)c3C2=O)c1OC` (stereo not shown) [Compound 9, parvisoflavanone], the concentration for half-maximal inhibition (IC50) against SARS-CoV PLpro [1] stood at 104 ± 6.1 µM. Also, at SARS-CoV PLpro [2], the “Inhibition Mode” value is “Noncompetitive (75.3 ± 5.7)” and the Ki turned out to be 75.3 µM.
On the same counts, the results for `CC(C)=CCC/C(C)=C/Cc1c(O)ccc(C(=O)/C=C/c2ccc(O)cc2)c1O` [Compound 7, xanthoangelol] are 6.3 ± 1.5 µM, “Noncompetitive (5.5 ± 0.8)” and 5.5 µM.
As for `CC(C)=CCc1cc2c(cc1O)OC[C@H]1c3ccc(O)c(CC=C(C)C)c3O[C@@H]21` [Compound 1, erythrabyssin II], the “Inhibition Mode” value on SARS-CoV PLpro [2] was “Noncompetitive (17.0 ± 3.1)”.
Regarding `COc1c(CC=C(C)C)c(O)cc2c1[C@@H]1Oc3c(cc(C)c(O)c3CC=C(C)C)[C@@H]1CO2` [Compound 4, bicolosin A], on SARS-CoV PLpro [1], the IC50 was 43.3 µM and 43.2 µM. On SARS-CoV PLpro [2], the “Inhibition Mode” value is on record as “Noncompetitive (45.2 ± 3.1)” and the inhibition constant Ki amounted to 45.2 µM.
As to `CC(C)=CCc1cc2c(cc1O)OCC1c3cc(C)c(O)c(CC=C(C)C)c3OC21` (stereo not shown) [Compound 2, lespebuergine G4], the IC50 against SARS-CoV PLpro [1] was 33 µM and 32.9 µM. In addition, on SARS-CoV PLpro [2], the “Inhibition Mode” value was “Noncompetitive (33.2 ± 1.7)” and the affinity, expressed as Ki, was 33.2 µM.
Regarding `CC(C)=CCC/C(C)=C/Cc1cc2c(cc1O)OC[C@H]1c3cc(C)c(O)c(CC=C(C)C)c3O[C@@H]21` [Compound 5, bicolosin B], 217 ± 7.6 µM corresponded to half-maximal inhibition at SARS-CoV PLpro [1] (IC50).
